According to ChEMBL document CHEMBL3217728, “Searching for innovative quinolone-like scaffolds: synthesis and biological evaluation of 2,1-benzothiazine 2,2-dioxide derivatives” (2012):
Active and inactive are the calls of the source. The rule behind the calls is not given here.

Legend:
[1] = target: T1, Quinolone resistance protein NorA (Staphylococcus aureus) (UniProt P0A0J7); experiment: Inhibition of NorA efflux pump in Staphylococcus aureus SA-1199B assessed as inhibition of EtBr efflux at 50 uM
T1 sequence (whole entry): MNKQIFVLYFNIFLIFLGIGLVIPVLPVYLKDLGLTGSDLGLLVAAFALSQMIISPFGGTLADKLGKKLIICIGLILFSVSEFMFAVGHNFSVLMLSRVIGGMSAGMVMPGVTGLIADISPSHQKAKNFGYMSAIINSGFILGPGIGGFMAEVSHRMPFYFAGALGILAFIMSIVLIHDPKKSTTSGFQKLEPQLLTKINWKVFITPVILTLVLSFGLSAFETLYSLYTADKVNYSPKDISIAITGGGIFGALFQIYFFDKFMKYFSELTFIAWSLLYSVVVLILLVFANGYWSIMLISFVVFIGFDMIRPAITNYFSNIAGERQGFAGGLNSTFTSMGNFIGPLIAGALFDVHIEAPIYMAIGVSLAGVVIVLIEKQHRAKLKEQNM

Enterococcus faecalis = experiment: Antibacterial activity against vancomycin-resistant Enterococcus faecalis 26A36; type: functional
[2] = Inhibition of DNA gyrase (unknown origin) by DNA super coiling assay
Staphylococcus aureus [3] = experiment: Antimicrobial activity against Staphylococcus aureus ATCC 25923; type: functional
Staphylococcus aureus [4] = experiment: Antimicrobial activity against ciprofloxacin, methicillin-resistant Staphylococcus aureus 25A; type: functional
Klebsiella pneumoniae = experiment: Antimicrobial activity against Klebsiella pneumoniae ATCC 13833; type: functional
Proteus mirabilis = experiment: Antimicrobial activity against Proteus mirabilis CCUG 26767; type: functional
[5] = system: Staphylococcus epidermidis; experiment: Antibacterial activity against Staphylococcus epidermidis ATCC 14990; type: functional
Enterococcus faecium [6] = experiment: Antibacterial activity against ciprofloxacin, vancomycin-resistant Enterococcus faecium 26A23; type: functional
Escherichia coli = experiment: Antimicrobial activity against Escherichia coli ATCC 25922; type: functional
Enterococcus faecium [7] = experiment: Antibacterial activity against Enterococcus faecium ATCC 19433; type: functional
Pseudomonas aeruginosa = experiment: Antimicrobial activity against Pseudomonas aeruginosa ATCC 27853; type: functional
Staphylococcus aureus [8] = experiment: Antimicrobial activity against methicillin-sensitive Staphylococcus aureus 21A; type: functional
Staphylococcus aureus [9] = experiment: Antimicrobial activity against wild type Staphylococcus aureus ATCC 25923; type: functional
Staphylococcus aureus [10] = experiment: Antimicrobial activity against norA-overexpressing Staphylococcus aureus SA-K2378; type: functional
Staphylococcus aureus [11] = experiment: Antimicrobial activity against norA-deficient Staphylococcus aureus SA-K1902; type: functional
Staphylococcus aureus [12] = experiment: Potentiation of ciprofloxacin-induced antibacterial effect against norA-deficient Staphylococcus aureus SA-K1902 at 0.78 to 100 ug/ml by isobologram based checkerboard assay; type: functional, organism-based
Staphylococcus aureus [13] = experiment: Potentiation of ciprofloxacin-induced antibacterial effect against wild type Staphylococcus aureus ATCC 25923 at 0.78 to 100 ug/ml by isobologram based checkerboard assay; type: functional, organism-based
[14] = target: T1, Quinolone resistance protein NorA (Staphylococcus aureus); experiment: Inhibition of NorA efflux pump in norA-overexpressing Staphylococcus aureus SA-K2378 assessed as reduction in ciprofloxacin MIC at 0.78 to 100 ug/ml by isobologram based checkerboard assay
[15] = target: T1, Quinolone resistance protein NorA (Staphylococcus aureus); experiment: Inhibition of NorA efflux pump in norA-overexpressing Staphylococcus aureus SA-K2378 assessed as reduction in ciprofloxacin MIC at 50 ug/ml by isobologram based checkerboard assay
[16] = target: T1, Quinolone resistance protein NorA (Staphylococcus aureus); experiment: Inhibition of NorA efflux pump in norA-overexpressing Staphylococcus aureus SA-K2378 assessed as reduction in ciprofloxacin MIC at 12.5 ug/ml by isobologram based checkerboard assay

| Structure (SMILES) | inhibition [1] | MIC (Enterococcus faecalis) | inhibition [2] | MIC (Staphylococcus aureus [3]) | MIC (Staphylococcus aureus [4]) | MIC (Klebsiella pneumoniae) | MIC (Proteus mirabilis) | MIC [5] | MIC (Enterococcus faecium [6]) | MIC (Escherichia coli) | MIC (Enterococcus faecium [7]) | MIC (Pseudomonas aeruginosa) | MIC (Staphylococcus aureus [8]) | MIC (Staphylococcus aureus [9]) | MIC (Staphylococcus aureus [10]) | MIC (Staphylococcus aureus [11]) | Activity (Staphylococcus aureus [12]) | Activity (Staphylococcus aureus [13]) | inhibition [14] | also measured |
| --- | --- | --- | --- | --- | --- | --- | --- | --- | --- | --- | --- | --- | --- | --- | --- | --- | --- | --- | --- | --- |
| CNC(=O)C1=C(O)c2cc(N)c(N3CCN(C)CC3)cc2N(C2CC2)S1(=O)=O | 2% | > 128 µg/mL | inactive | > 128 µg/mL | > 128 µg/mL | > 128 µg/mL | > 128 µg/mL | > 128 µg/mL | > 128 µg/mL | > 128 µg/mL | > 128 µg/mL | > 128 µg/mL | > 128 µg/mL | – | – | – | – | – | – | – |
| COC(=O)[C@H]1[C@H]2C[C@@H]3c4[nH]c5cc(OC)ccc5c4CCN3C[C@H]2C[C@@H](OC(=O)c2cc(OC)c(OC)c(OC)c2)[C@@H]1OC [RESERPINE] | – | – | – | – | – | – | – | – | – | – | – | – | – | > 100 µg/mL | > 100 µg/mL | > 100 µg/mL | inactive | inactive | Active | – |
| CCOC(=O)C1(C)C(=O)c2cc(N)c(N3CCN(C)CC3)cc2N(C2CC2)S1(=O)=O (stereo unspecified) | 25% | > 128 µg/mL | inactive | > 128 µg/mL | > 128 µg/mL | > 128 µg/mL | > 128 µg/mL | > 128 µg/mL | > 128 µg/mL | > 128 µg/mL | > 128 µg/mL | > 128 µg/mL | > 128 µg/mL | > 100 µg/mL | > 100 µg/mL | > 100 µg/mL | inactive | inactive | Dose-dependent effect | fold change (FC) [15]: 4 |
| CC1C(=O)c2cc(N)c(N3CCN(C)CC3)cc2N(C2CC2)S1(=O)=O (stereo unspecified) | 27% | > 128 µg/mL | inactive | > 128 µg/mL | > 128 µg/mL | > 128 µg/mL | > 128 µg/mL | > 128 µg/mL | > 128 µg/mL | > 128 µg/mL | > 128 µg/mL | > 128 µg/mL | > 128 µg/mL | > 100 µg/mL | > 100 µg/mL | > 100 µg/mL | inactive | inactive | Dose-dependent effect | fold change (FC) [16]: 4 |
| CN1CCN(c2cc3c(cc2N)C(=O)CS(=O)(=O)N3C2CC2)CC1 | 7% | > 128 µg/mL | inactive | > 128 µg/mL | > 128 µg/mL | > 128 µg/mL | > 128 µg/mL | > 128 µg/mL | > 128 µg/mL | > 128 µg/mL | > 128 µg/mL | > 128 µg/mL | > 128 µg/mL | – | – | – | – | – | – | – |
| Fc1ccc([C@@H]2CCNC[C@H]2COc2ccc3c(c2)OCO3)cc1 [PAROXETINE] | – | – | – | – | – | – | – | – | – | – | – | – | – | > 100 µg/mL | > 100 µg/mL | > 100 µg/mL | inactive | inactive | Active | – |
| CCOC(=O)C1=C(O)c2cc(N)c(N3CCN(C)CC3)cc2N(C2CC2)S1(=O)=O | 0% | > 128 µg/mL | inactive | > 128 µg/mL | > 128 µg/mL | > 128 µg/mL | > 128 µg/mL | > 128 µg/mL | > 128 µg/mL | > 128 µg/mL | > 128 µg/mL | > 128 µg/mL | > 128 µg/mL | – | – | – | – | – | – | – |
